Experimental data from patent US6300327A, “Compositions and methods for potentiation of neurotrophin activity” (The University of Southern California, priority 1997, dated 2001).
“Also recorded” adds a separate entry of the source.

How the values were obtained:
[1] = system: protein kinase activity of the platelet-derived growth factor; conditions: cell-free preparations; cited from earlier work
[2] = system: epidermal growth factor and basic fibroblast growth factor receptors; test: Receptor tyrosine phosphorylation induced by epidermal growth factor and basic fibroblast growth factor in PC12 cells; type: cell-based; conditions: K-252b
protein kinase C = conditions: in vitro assay systems; cited from earlier work
[3] = biological target: cGMP-dependent protein kinase; conditions: in vitro assay systems; cited from earlier work
trk = trk tyrosine phosphorylation in PC12 cells (immunoprecipitation, anti-phosphotyrosine immunoblot); type: cell-based
Method: To measure the status of trk tyrosine phosphorylation, PC12 cells were lysed and immunoprecipitated with anti-trk serum. The trk proteins were subjected to 7.5% SDS-PAGE and analyzed by immunoblotting with anti-phosphotyrosine antibodies as described in detail in the literature [Kaplan, D. R. et al., "PDGF beta receptor stimulates tyrosine phosphorylation of GAP and association of GAP with a signaling complex," Cell 61:125-133 (1990)]. Tyrosine phosphorylation of cellular proteins was assayed by probing Western blots of lysates of PC12 cells incubated with K-252b and NT-3 or NGF with anti-phosphotyrosine antibodies. Phospholipase C gammal was identified in these blots as described elsewhere [Vetter, M.L. et al., "Nerve growth factor rapidly stimulates tyrosine phosphorylation of phospholipase C-gammal by a kinase activity associated with the product of trk protooncogene," Proc. Natl Acad. Sci. USA 88:5650-5654 (1991)].
(§1) Experiments on PC12 cells confirmed observations made on primary neuron cultures. Treatment with K-252b stimulated NT-3 induced neurite outgrowth and trk tyrosine phosphorylation in PC12 cells while inhibiting NGF induced effects. PC12 cells were incubated for 48 hours with K-252b (50 nM) and NT-3 or NGF (50 ng/ml). FIG. 4A illustrates the % cells with neurites after 48 hours incubation. Neurites were scored if they were a length of one cell body or more. PC12 cells were subsequently lysed and immunoprecipitated with anti-trk serum. trk proteins were subjected to SDS-PAGE and analyzed by immunoblotting with anti-phosphotyrosine antibodies (FIG. 4B). Lane 1, NT-3 +K-252b; lane 2, NT-3; lane 3, NGF +K-252b; lane 4, NGF. For FIG. 4C, PC12 cells were incubated for 1 hour in K-252b (50 nM or 10 μM) and with NT-3 or NGF for 5 minutes prior to lysis; other methods were the same as described for FIG. 4B. Lane 1, NT-3+10 μM K-252b; lane 2, NT-3±50 nM K-252b; lane 3, NT-3; lane 4, NGF+10 μM K-252b; lane 5, NGF+50 nM K-252b; lane 6, NGF; lane 7, untreated control.

Cytotoxicity in vitro = type: cell-based
PC12 cells = test: Neurite outgrowth of PC12 cells; type: cell-based; conditions: 48 hours
Method: PC12 cells were grown as described earlier [Kaplan et al., 1990, 1991a, b]. To assess effects on neurite outgrowth, cells were incubated for 48 hours with K-252b (50 nM) and NT-3 or NGF (50 ng/ml). Neurites were scored if they were a length of one cell body or more.
as §1

neurotrophin activity = test: Neurotrophin potentiation in vitro (overall statements); type: cell-based
[4] = biological target: cAMP-dependent protein kinase; conditions: in vitro assay systems; cited from earlier work
trkB = test: Cell-free tyrosine phosphorylation of recombinant human trkB expressed in Sf9 insect cells; type: biochemical; conditions: 10 μM K-252b
Method: Human trk and trkB were expressed in Sf9 insect cells transfected using a baculovirus system. The trk proteins were immunoprecipitated as described above and the precipitates were incubated with 20 μCi [gamma-^32 P]ATP, 10 mM MnCl2, 20 mM Tris, pH 7.4, for 5 min at 25° C. in the presence of increasing amounts of K-252b or control solution. Phosphorylated proteins were analyzed as described for FIG. 4B. The tyrosine kinase activity of the trk and trkB proteins was activated in the absence of ligand, a common observation for receptor tyrosine kinase produced in the baculovirus system. The trk and trkB proteins were 25% pure as assayed by SDS-PAGE.
K-252b interacts directly with the trk and trkB protein. Human trk and trkB were expressed in Sf9 insect cells transfected using a baculovirus system. trk proteins were immunoprecipitated and the precipitates were incubated with [gamma^32 P]ATP in the presence of increasing amounts of K-252b or control solution.

In the case of `CC12OC(CC1(O)C(=O)O)n1c3ccccc3c3c4c(c5c6ccccc6n2c5c31)CNC4=O` (stereo not drawn) [K-252b], the “inhibition of protein kinase activity of the platelet-derived growth factor” value [1] is given as “inhibits”, the “effect on receptor responses induced by epidermal growth factor and basic fibroblast growth factor” value [2] is given as “failed to influence” and the Ki (protein kinase C) is given as 0.01 to 0.1 µM. The Ki [3] was 0.01 to 0.1 µM, the “trk tyrosine phosphorylation with NT-3” value (trk; 50 nM K-252b + NT-3, 48 hours) was “clear increase” and the “effect on NGF-induced trk phosphorylation” value (trk; 10 μM K-252b, 1 hour, then NGF 5 minutes) was “partially inhibited”. For the same molecule, the “trk tyrosine phosphorylation with NT-3” value (trk; 1 hour K-252b followed by 5 minutes NT-3) was “greatly enhanced”, the “trk tyrosine phosphorylation, inhibitor alone without NT-3” value (trk; K-252b alone) was “identical to untreated controls” and the cytotoxicity (Cytotoxicity in vitro) was “lacked cytotoxicity; also recorded: non-toxic”. The “reduction of NGF-induced neurite outgrowth” value (PC12 cells; 50 nM K-252b + NGF 50 ng/ml) was “approximately three-fold”, the “effect on NT-3 induced neurite outgrowth” value (PC12 cells; 50 nM K-252b + NT-3 50 ng/ml, vs NT-3 alone) was “significantly more neurite outgrowth activity” and the “effect on actions of NT-3” value (neurotrophin activity; nM concentrations) was “selectively potentiates”. For the same molecule, the “effect on actions of all neurotrophins” value (neurotrophin activity; μM concentrations) was “inhibits the actions of all neurotrophins”, the Ki [4] was 0.01 to 0.1 µM and the “effect on trkB tyrosine phosphorylation, cell-free system” value (trkB) was “completely prevented”.
